Columns and labels:
Type in all cases: cell-based
St. Aereus = assay: Antimicrobial testing by agar dilution, St. Aereus; details: Staphylococcus aureus; after 10, 20, 40 and 60 min at all dilutions 1:100, 1:200, 1:400, 1:800; summary in words
Description: (§1) The antimicrobial properties of the 5-(4-methoxyphenyl)-1-hexyl-2-(4-nitrophenyl)-4-phenyl-1H-imidazole was studied by the method of agar dilution. Test solutions of each compound was prepared in concentration of 1% using dimethylformamide as a solvent then they are diluted in physiological solution to obtain the final experimental dilutions 1:100, 1:200, 1:400, 1:800. The effect of these substances are compared with furacillin in a controllable study. The testing microbes used were gram positive bacteria St. Aereus, gram negative bacteria E. Coli, Ps. aeruginosa and Candida albicans fungi were taken. The experiments used for this survey were meat-pentonlu agar (EPA) for cultivation of bacteria and Saburo environment for fungi. Each experiment used 1 ml of test solution on each plate 500 min. Add 2 drops of emulsified with microbes feel. All experimental samples were taken from the agar after 10, 20, 40, 60 minutes in the environment on the basis of Patrk planted. Bacteria were cultivated at a temperature of 37° C. for 1 day and the mushroom was kept in a thermostat for […] at a temperature of 28° C. in the. Then results were checked.

E. Coli = assay: Antimicrobial testing by agar dilution, E. Coli; details: Escherichia coli; after 10, 20, 40 and 60 min at all dilutions 1:100, 1:200, 1:400, 1:800; summary in words
Description: as §1

Ps. aeruginosa = assay: Antimicrobial testing by agar dilution, Ps. aeruginosa; details: Pseudomonas aeruginosa; after 10, 20, 40 and 60 min at all dilutions 1:100, 1:200, 1:400, 1:800; summary in words
Description: as §1

Candida albicans = assay: Antimicrobial testing by agar dilution, Candida albicans; details: after 10, 20, 40 and 60 min at all dilutions 1:100, 1:200, 1:400, 1:800, summary in words
Description: as §1

Measured: inhibition activity

CCCCCCn1c(-c2ccc([N+](=O)[O-])cc2)nc(-c2ccccc2)c1-c1ccc(OC)cc1 [5-(4-methoxyphenyl)-1-hexyl-2-(4-nitrophenyl)-4-phenyl-1H-imidazole]
most higher inhibition activity: St. Aereus | E. Coli | Ps. aeruginosa | Candida albicans
